{"source": "patent US20050004186A1", "about": "“MEK inhibiting compounds” (Pfizer Inc, priority 2002, published 2005)", "key": {"MEK": {"tested_on": "MEK", "assay": "Cellular assay for measuring MEK inhibition, C26CPA1 (inhibition of ERK phosphorylation in C26 cells)", "format": "cell-based, murine", "settings": "for IC50: murine colon 26 (C26) carcinoma cells, one hour at 37 C; for C26CPA1 % Inhibition @ 0.1 μM / C26CPA1 % Inhibition @ 1 μM: C26 cells", "description": "Cellular Assay for Measuring MEK Inhibition\nMEK inhibitors were evaluated by determining their ability to inhibit phosphorylation of MAP kinase (ERK) in murine colon 26 (C26) carcinoma cells. Since ERK1 and ERK2 represent the only known substrates for MEK1 and MEK2, the measurement of inhibition of ERK phosphorylation in cells provides direct read out of cellular MEK inhibition by the compounds of the invention. Detection of phosphorylation of ERK was carried out either by Western blot or ELISA format. Briefly, the assays involve treatment of exponentially growing C26 cells with varying concentrations of the test compound (or vehicle control) for one hour at 37≡ C. For Western blot assay, cells were rinsed free of compound/vehicle and lysed in a solution containing 70 mM NaCl, 50 mM glycerol phosphate, 10 mM HEPES, […], 1% Triton X-100, 1 mM Na3VO4, 100 μM PMSF, 10 μM leupeptin and 10 μM pepstatin. Supernatants were then subjected to gel electrophoresis and hybridized to a primary antibody recognizing dually phosphorylated ERK1 and ERK2. To evaluate total MAPK levels, blots were subsequently ‘stripped’ and re-probed with a 1:1 mixture of polyclonal antibodies recognizing unphosphorylated ERK1 and ERK2. For pERK ELISA assay, pERK TiterZyme Enzyme immunometric Assay kits were acquired from Assay Designs, Inc (Ann Arbor, Mich.). Briefly, cells were harvested in lysis solution containing 50 mM β-glycerophosphate, 10 mM HEPES, pH7.4, 70 mM NaCl, 2 mM EDTA and 1% SDS and protein lysates were diluted 1:15 with supplied Assay buffer prior to the execution of the assay. The subsequent steps were carried out essentially as recommended by the manufacturer."}}, "note": "Where a name gives a salt, the structure may show the parent alone.", "data": [{"smiles": "CN(C)CCCN(C)c1nnc(-c2ccc(F)c(F)c2Nc2ccc(I)cc2F)o1", "note": "(as salt: hydrochloride) [Example 12, N-{5-[3,4-Difluoro-2-(2-fluoro-4-iodo-phenylamino)-phenyl]-[1,3,4]oxadiazol-2-yl}-N,N′,N′-trimethyl-propane-1,3-diamine]", "values": [{"measurement": "melting point", "result": "123 to 126", "unit": "°C"}]}, {"smiles": "Fc1cc(I)ccc1Nc1c(-c2nnc(NCCN3CCCCC3)o2)ccc(F)c1F", "note": "(as salt: hydrochloride) [Example 13, {5-[3,4-Difluoro-2-(2-fluoro-4-iodo-phenylamino)-phenyl]-[1,3,4]oxadiazol-2-yl}-(2-piperidin-1-yl-ethyl)-amine]", "values": [{"measurement": "melting point", "result": "191 to 193", "unit": "°C"}]}, {"smiles": "NCCCCNc1nnc(-c2ccc(F)c(F)c2Nc2ccc(I)cc2F)o1", "note": "(as salt: hydrochloride) [Example 14, N′1′-{5-[3,4-Difluoro-2-(2-fluoro-4-iodo-phenylamino)-phenyl]-[1,3,4]oxadiazol-2-yl}-butane-1,4-diamine]", "values": [{"measurement": "melting point", "result": "157 to 159", "unit": "°C"}]}, {"smiles": "NCCCNc1nnc(-c2ccc(F)c(F)c2Nc2ccc(I)cc2F)o1", "note": "(as salt: hydrochloride) [Example 15, N′1′-{5-[3,4-Difluoro-2-(2-fluoro-4-iodo-phenylamino)-phenyl]-[1,3,4]oxadiazol-2-yl}-propane-1,3-diamine]", "values": [{"measurement": "melting point", "result": "173 to 176", "unit": "°C"}]}, {"smiles": "CN(C)CCCNc1nnc(-c2ccc(F)c(F)c2Nc2ccc(I)cc2F)o1", "note": "(as salt: hydrochloride) [Example 16, N-{5-[3,4-Difluoro-2-(2-fluoro-4-iodo-phenylamino)-phenyl]-[1,3,4]oxadiazol-2-yl}-N′,N′-dimethyl-propane-1,3-diamine]", "values": [{"measurement": "melting point", "result": "168 to 170", "unit": "°C"}]}, {"smiles": "CN(C)CCNc1nnc(-c2ccc(F)c(F)c2Nc2ccc(I)cc2F)o1", "note": "(as salt: hydrochloride) [Example 17, N-{5-[3,4-Difluoro-2-(2-fluoro-4-iodo-phenylamino)-phenyl]-[1,3,4]oxadiazol-2-yl}-N′,N′-dimethyl-ethane-1,2-diamine]", "values": [{"measurement": "melting point", "result": "184 to 187", "unit": "°C"}]}, {"smiles": "CNCCNc1nnc(-c2ccc(F)c(F)c2Nc2ccc(I)cc2F)o1", "note": "(as salt: hydrochloride) [Example 18, N-{5-[3,4-Difluoro-2-(2-fluoro-4-iodo-phenylamino)-phenyl]-[1,3,4]oxadiazol-2-yl}-N′-methyl-ethane-1,2-diamine]", "values": [{"measurement": "melting point", "result": "173 to 175", "unit": "°C"}]}, {"smiles": "NCCNc1nnc(-c2ccc(F)c(F)c2Nc2ccc(I)cc2F)o1", "note": "(as salt: salt) [Example 11, N′1′-{5-[3,4-Difluoro-2-(2-fluoro-4-iodo-phenylamino)-phenyl]-[1,3,4]oxadiazol-2-yl}-ethane-1,2-diamine]", "values": [{"measurement": "melting point", "result": "156 to 158", "unit": "°C"}]}, {"smiles": "Nc1nnc(-c2ccc(F)c(F)c2Nc2ccc(I)cc2F)o1", "note": "[Example 1, 5-[3,4-Difluoro-2-(2-fluoro-4-iodo-phenylamino)-phenyl]-[1,3,4]oxadiazol-2-ylamine]", "values": [{"measurement": "IC50", "setting": "MEK", "result": 40, "unit": "nM"}, {"measurement": "melting point", "result": "248 to 249", "unit": "°C"}]}, {"smiles": "CCNc1nnc(-c2ccc(F)c(F)c2Nc2ccc(I)cc2F)o1", "note": "[Example 4, {5-[3,4-Difluoro-2-(2-fluoro-4-iodo-phenylamino)-phenyl]-[1,3,4]oxadiazol-2-yl}-ethyl-amine]", "values": [{"measurement": "IC50", "setting": "MEK", "result": 89, "unit": "nM"}, {"measurement": "melting point", "result": "188 to 189", "unit": "°C"}]}, {"smiles": "C=CCNc1nnc(-c2ccc(F)c(F)c2Nc2ccc(I)cc2F)o1", "note": "[Example 5, Allyl-{5-[3,4-difluoro-2-(2-fluoro-4-iodo-phenylamino)-phenyl]-[1,3,4]oxadiazol-2-yl}-amine]", "values": [{"measurement": "IC50", "setting": "MEK", "result": 9, "unit": "nM"}, {"measurement": "melting point", "result": "175 to 178", "unit": "°C"}]}, {"smiles": "OCCCNc1nnc(-c2ccc(F)c(F)c2Nc2ccc(I)cc2F)o1", "note": "[Example 30, 3-{5-[3,4-Difluoro-2-(2-fluoro-4-iodo-phenylamino)-phenyl]-[1,3,4]oxadiazol-2-ylamino}-propan-1-ol]", "values": [{"measurement": "melting point", "result": "154 to 155", "unit": "°C"}]}, {"smiles": "C=CCNc1nnc(-c2ccc(F)c(F)c2Nc2ccc(CC)cc2F)o1", "note": "[Example 70, Allyl-{5-[2-(4-ethyl-2-fluoro-phenylamino)-3,4-difluoro-phenyl]-[1,3,4]oxadiazol-2-yl}-amine]", "values": [{"measurement": "melting point", "result": "120 to 123", "unit": "°C"}]}, {"smiles": "CCc1ccc(Nc2c(-c3nnc(N(CCCN(C)C)CCCN(C)C)o3)ccc(F)c2F)c(F)c1", "note": "[Example 96, N^1-(3-Dimethylamino-propyl)-N^1-{5-[2-(4-ethyl-2-fluoro-phenylamino)-3,4-difluoro-phenyl]-1,3,4-oxadiazol-2-yl}-N>3,N>3-dimethyl-propane-1,3-diamine]", "values": [{"measurement": "C26CPA1 % Inhibition @ 0.1 μM", "setting": "MEK", "result": 54, "unit": "%"}, {"measurement": "C26CPA1 % Inhibition @ 1 μM", "setting": "MEK", "result": 55, "unit": "%"}]}, {"smiles": "CCCN(CC1CC1)c1nnc(-c2ccc(F)c(F)c2Nc2ccc(CC)cc2F)o1", "note": "[Example 100, Cyclopropylmethyl-{5-[2-(4-ethyl-2-fluoro-phenylamino)-3,4-difluoro-phenyl]-1,3,4-oxadiazol-2-yl}-propyl-amine]", "values": [{"measurement": "C26CPA1 % Inhibition @ 0.1 μM", "setting": "MEK", "result": 37.1, "unit": "%"}, {"measurement": "C26CPA1 % Inhibition @ 1 μM", "setting": "MEK", "result": 40.5, "unit": "%"}]}, {"smiles": "CCc1ccc(Nc2c(-c3nnc(N4CCN(CC)CC4)o3)ccc(F)c2F)c(F)c1", "note": "[Example 101, (4-Ethyl-2-fluoro-phenyl)-{6-[5-(4-ethyl-piperazin-1-yl)-1,3,4-oxadiazol-2-yl]-2,3-difluoro-phenyl}-amine]", "values": [{"measurement": "C26CPA1 % Inhibition @ 0.1 μM", "setting": "MEK", "result": 41.2, "unit": "%"}, {"measurement": "C26CPA1 % Inhibition @ 1 μM", "setting": "MEK", "result": 47.1, "unit": "%"}]}, {"smiles": "CCc1ccc(Nc2c(-c3nnc(N(C)C4CCN(C)C4)o3)ccc(F)c2F)c(F)c1", "note": "(stereo not shown) [Example 102, {5-[2-(4-Ethyl-2-fluoro-phenylamino)-3,4-difluoro-phenyl]-1,3,4-oxadiazol-2-yl}-methyl-(1-methyl-pyrrolidin-3-yl)-amine]", "values": [{"measurement": "C26CPA1 % Inhibition @ 0.1 μM", "setting": "MEK", "result": 42.4, "unit": "%"}, {"measurement": "C26CPA1 % Inhibition @ 1 μM", "setting": "MEK", "result": 54.6, "unit": "%"}]}, {"smiles": "CCc1ccc(Nc2c(-c3nnc(N4CCN(C)CC4)o3)ccc(F)c2F)c(F)c1", "note": "[Example 112, {2,3-Difluoro-6-[5-(4-methyl-piperazin-1-yl)-1,3,4-oxadiazol-2-yl]-phenyl}-(4-ethyl-2-fluoro-phenyl)-amine]", "values": [{"measurement": "C26CPA1 % Inhibition @ 0.1 μM", "setting": "MEK", "result": 62.6, "unit": "%"}, {"measurement": "C26CPA1 % Inhibition @ 1 μM", "setting": "MEK", "result": 84, "unit": "%"}]}, {"smiles": "CCc1ccc(Nc2c(-c3nnc(NCCc4cccs4)o3)ccc(F)c2F)c(F)c1", "note": "[Example 114, {5-[2-(4-Ethyl-2-fluoro-phenylamino)-3,4-difluoro-phenyl]-1,3,4-oxadiazol-2-yl}-(2-thiophen-2-yl-ethyl)-amine]", "values": [{"measurement": "C26CPA1 % Inhibition @ 0.1 μM", "setting": "MEK", "result": 35.4, "unit": "%"}, {"measurement": "C26CPA1 % Inhibition @ 1 μM", "setting": "MEK", "result": 46.3, "unit": "%"}]}, {"smiles": "CCc1ccc(Nc2c(-c3nnc(N(C)CCS(C)(=O)=O)o3)ccc(F)c2F)c(F)c1", "note": "[Example 121, {5-[2-(4-Ethyl-2-fluoro-phenylamino)-3,4-difluoro-phenyl]-1,3,4-oxadiazol-2-yl}-(2-methanesulfonyl-ethyl)-methyl-amine]", "values": [{"measurement": "C26CPA1 % Inhibition @ 0.1 μM", "setting": "MEK", "result": 0, "unit": "%"}, {"measurement": "C26CPA1 % Inhibition @ 1 μM", "setting": "MEK", "result": 26.9, "unit": "%"}]}, {"smiles": "CCc1ccc(Nc2c(-c3nnc(N4CCN(Cc5ccccn5)CC4)o3)ccc(F)c2F)c(F)c1", "note": "[Example 123, {2,3-Difluoro-6-[5-(4-pyridin-2-ylmethyl-piperazin-1-yl)-1,3,4-oxadiazol-2-yl]-phenyl}-(4-ethyl-2-fluoro-phenyl)-amine]", "values": [{"measurement": "C26CPA1 % Inhibition @ 0.1 μM", "setting": "MEK", "result": 0, "unit": "%"}, {"measurement": "C26CPA1 % Inhibition @ 1 μM", "setting": "MEK", "result": 0, "unit": "%"}]}, {"smiles": "CCc1ccc(Nc2c(-c3nnc(N(C)CCc4ccccn4)o3)ccc(F)c2F)c(F)c1", "note": "[Example 127, {5-[2-(4-Ethyl-2-fluoro-phenylamino)-3,4-difluoro-phenyl]-1,3,4-oxadiazol-2-yl}-methyl-(2-pyridin-2-yl-ethyl)-amine]", "values": [{"measurement": "C26CPA1 % Inhibition @ 0.1 μM", "setting": "MEK", "result": 0, "unit": "%"}, {"measurement": "C26CPA1 % Inhibition @ 1 μM", "setting": "MEK", "result": 0, "unit": "%"}]}, {"smiles": "CCc1ccc(Nc2c(-c3nnc(NCC(c4cccnc4)N4CCOCC4)o3)ccc(F)c2F)c(F)c1", "note": "(stereo not shown) [Example 128, {5-[2-(4-Ethyl-2-fluoro-phenylamino)-3,4-difluoro-phenyl]-1,3,4-oxadiazol-2-yl}-(2-morpholin-4-yl-2-pyridin-3-yl-ethyl)-amine]", "values": [{"measurement": "C26CPA1 % Inhibition @ 0.1 μM", "setting": "MEK", "result": 0, "unit": "%"}, {"measurement": "C26CPA1 % Inhibition @ 1 μM", "setting": "MEK", "result": 0, "unit": "%"}]}, {"smiles": "CCc1ccc(Nc2c(-c3nnc(NC(C)Cc4ccsc4)o3)ccc(F)c2F)c(F)c1", "note": "(stereo not shown) [Example 137, {5-[2-(4-Ethyl-2-fluoro-phenylamino)-3,4-difluoro-phenyl]-1,3,4-oxadiazol-2-yl}-(1-methyl-2-thiophen-3-yl-ethyl)-amine]", "values": [{"measurement": "C26CPA1 % Inhibition @ 0.1 μM", "setting": "MEK", "result": 72.1, "unit": "%"}, {"measurement": "C26CPA1 % Inhibition @ 1 μM", "setting": "MEK", "result": 85.3, "unit": "%"}]}, {"smiles": "CCc1ccc(Nc2c(-c3nnc(CC)o3)ccc(F)c2F)c(F)c1", "note": "[Example 142, (4-Ethyl-2-fluoro-phenyl)-[6-(5-ethyl-[1,3,4]oxadiazol-2-yl)-2,3-difluoro-phenyl]-amine]", "values": [{"measurement": "melting point", "result": "82 to 83", "unit": "°C"}]}, {"smiles": "CNCCNc1nnc(-c2ccc(F)c(F)c2Nc2ccc(CCO)cc2F)o1", "note": "[Example 167, 2-(4-{2,3-difluoro-6-[5-(2-methylamino-ethylamino)-1[1,3,4]oxadiazol-2-yl]-phenylamino}-3-fluoro-phenyl)-ethanol]", "values": [{"measurement": "IC50", "setting": "MEK", "result": 910, "unit": "nM"}]}]}
